Consider two compounds from patent US20100311691A1, “COMPOSITIONS OF S-ALKYLISOTHIOURONIUM DERIVATIVES FOR TREATING UPPER RESPIRATORY CONGESTION” (priority 2007, published 2010).

The subject of data set [1] is nasal congestion. The conditions noted are these: unpublished studies; cited from earlier work.
Data set [2] has as its system nasal congestion, rhino-sinusitis. The experiment in a line: Example 4: case report Patient A (rhino-sinusitis), nasal drops. In kind it is in vivo. The conditions noted are these: for repeated administrations needed: nasal drops. Here is the method: Patient A was admitted with a diagnosis of rhino-sinusitis. […] Clinical examination indicated hyperemia of the nasal mucosa, rhinorrhea, nasal obstruction with narrowing of the lower and medium nasal cornets. The patient was treated with, antibacterial medication, and the sinuses were drained by the introduction of antiseptics. In addition, 2-3 nasal drops of S-ethylisothiouronium diethylphosphate 1% were administered. The patient was treated during 3 days. As a result of the treatment with S-ethylisothiouronium diethylphosphate, an amelioration of the clinical symptoms was achieved 1-2 days earlier than that achieved by the treatment with S-ethylisothiouronium bromide (designated Olysin). Also, the repeated administration of S-ethylisothiouronium diethylphosphate was reduced to 2-3 times per day, and not 4-5 times as was necessary when administering Olysin.

Data set [3] relates to nasal congestion, rhinitis and acute sinusitis. The data set can be described thus: Example 4: case report Patient B (rhinitis and acute sinusitis), nasal drops. It counts as in vivo. How it is done:
Patient B was admitted with a diagnosis of rhinitis and acute sinusitis. The patient complained of headaches, dizziness, and common cold. […] The radiological examination confirmed acute sinusitis. The patient was treated by puncture of the sinuses with the introduction of antiseptics, Cefazoline 1.0 administered intramuscularly 2 times per day, Loratidin tablets 10 mg and, locally, nasal drops of S-ethylisothiouronium diethylphosphate 2% were used 3-4 times per day. The treatment with S-ethylisothiouronium diethylphosphate led to an amelioration of the clinical symptoms and hyperemia of the nasal mucosa 1-2 days earlier than that obtained by the treatment with Olysin.

For data set [4], the system named is upper respiratory tract and oral pharyngeal congestion. The data set can be described thus: Summary comparison of diethylphosphate and bromide in upper respiratory tract and oral pharyngeal congestion. In kind it is in vivo, subjects. Conditions: summary statement.

For the compound `Br.CCSC(=N)N` [Olysin, S-ethylisothiouronium bromide], in data set [1], the nasal decongestion result was “moderate and short-term nasal decongestions”; the side effects result is recorded as “harmful side effects”. The repeated administrations needed in data set [2] was 4-5 times per day.

As for S-ethylisothiouronium diethylphosphate, the adverse effects result in data set [3] (2% nasal drops) is listed as “No adverse effects”. Also, the “amelioration of clinical symptoms and hyperemia of the nasal mucosa earlier than with Olysin” value in data set [3] (2% nasal drops 3-4 times per day, with Cefazoline, Loratidin, antiseptics) lay in the range of 1 to 2 days. The “adverse effects / tachyphylaxis” value in data set [2] (1% nasal drops) is “No adverse effects or tachyphylaxis”. The “amelioration of clinical symptoms earlier than with S-ethylisothiouronium bromide (Olysin)” value in data set [2] (2-3 nasal drops of 1%, treated during 3 days, with antibacterial medication and sinus drainage) lay within 1 to 2 days. Also, the repeated administrations needed in data set [2] is on record as 2-3 times per day. In data set [4], the “efficiency in alleviating congestion and symptoms, relative to S-ethylisothiouronium bromide” value is “more efficient than S-ethylisothiouronium bromide”; the side effects result is on record as “little or no side effects”.
